# Reference: paper PMC7899551, “Phase 1 study of Z-endoxifen in patients with advanced gynecologic, desmoid, and hormone receptor-positive solid tumors” (Oncotarget, 2021)
# “And” between values parts separate entries of the source, which are not always exact repeats. Equal values may be shown once. Read-outs that look alike come from different tables or passages of the source.
# Experiment: Plasma pharmacokinetics of Z-endoxifen (HPLC assay, non-compartmental analysis)
# Assay type: in vivo, human
# Description: This was an open-label trial of Z-endoxifen in patients with advanced solid tumors (https://clinicaltrials.gov/ identifier: NCT01273168). Z-endoxifen-HCl was supplied by the Pharmaceutical Management Branch, National Cancer Institute, as 20 and 40 mg capsules; agent was administered orally once daily on a continuous schedule in 28-day cycles with a starting dose of 20 mg/day taken either 1 hour before or 2 hours after meals. Dose escalation followed a traditional 3+3 design in which patients were dose-escalated to the next dose level (DL) in cohorts of 3 patients until dose-limiting toxicity (DLT) was observed. DLT was defined as an adverse event that occurred during cycle 1, was thought to be related to study drug administration, and met one of the following criteria: grade ≥ 3 non-hematologic toxicities (except diarrhea, nausea and vomiting, alopecia, rising creatinine or electrolyte toxicities that resolved within 24 hours, or intolerable estrogen withdrawal symptoms) or grade ≥ 3 hematologic toxicities (except neutropenia lasting less than 5 days, lymphopenia, or anemia). Eight dose levels (DL1-8) were examined: 20, 40, 60, 100, 140, 200, 280, and 360 mg, respectively. Two patients at DL8 received the free base form of Z-endoxifen on day 1 rather than the hydrochloride salt to assess the pharmacokinetics of that formulation.
# A 3-mL blood sample was collected in a K2 EDTA tube on day 1 of cycle 1 before drug administration and at the following times post-first dose: 0.5, 1, 2, 3, 4, 6, 8, and 24 hours. Samples were collected at the same time points on day 28 of cycle 1 for DL1-6 until a protocol amendment eliminated the requirement for these samples at the higher dose levels. Samples were wrapped in aluminum foil after collection to protect from light exposure. A 10-mL aliquot of urine was collected before agent administration on cycle 1 day 1, for 24 hours after dosing on day 1, and before drug administration on cycle 2 day 1; samples were refrigerated prior to analysis.
# Plasma and urine concentrations of Z- and E-endoxifen were measured using a validated, post-column fluorescence derivatization HPLC assay. Non-compartmental pharmacokinetic parameters were calculated using WinNonlin version 7.0 (Pharsight Corp., Mountainview, CA, USA). A 2 μM Cmax target was established for day 28 plasma concentration. The amount of Z-endoxifen excreted in urine was measured over a 24-hour collection period.
# [1] = DL1 20 mg oral, day 1, individual patients, listed as Z-endoxifen HCl
# [2] = DL1 20 mg/day oral, day 28, individual patients, listed as Z-endoxifen HCl
# [3] = DL2 40 mg oral, day 1, individual patients, listed as Z-endoxifen HCl
# [4] = DL2 40 mg/day oral, day 28, individual patients, listed as Z-endoxifen HCl
# [5] = DL3 60 mg oral, day 1, individual patients, listed as Z-endoxifen HCl
# [6] = DL3 60 mg/day oral, day 28, individual patients, listed as Z-endoxifen HCl
# [7] = DL4 100 mg oral, day 1, individual patients, listed as Z-endoxifen HCl
# [8] = DL5 140 mg oral, day 1, individual patients, listed as Z-endoxifen HCl
# [9] = DL5 140 mg/day oral, day 28, individual patients, listed as Z-endoxifen HCl
# [10] = DL6 200 mg oral, day 1, individual patients, listed as Z-endoxifen HCl
# [11] = DL6 200 mg/day oral, day 28, individual patients, listed as Z-endoxifen HCl
# [12] = DL7 280 mg oral, day 1, individual patients, listed as Z-endoxifen HCl
# [13] = DL8 360 mg oral, day 1, individual patients, listed as Z-endoxifen HCl
smiles,measurement,setting,value
CC/C(=C(\c1ccc(O)cc1)c1ccc(OCCNC)cc1)c1ccccc1 [Z-endoxifen],AUC(0-24h),[1],1055 ng·h/mL and 1169 ng·h/mL
same,C24h,[1],32.6 ng/mL and 32.7 ng/mL
same,Cmax,[1],61.2 ng/mL and 67.7 ng/mL
same,AUC(0-24h),[2],4469 ng·h/mL and 5313 ng·h/mL
same,Adjusted Half-Life,[2],61.8 h and 67.0 h
same,C24h,[2],48.8 ng/mL and 139.6 ng/mL and 206.6 ng/mL
same,Cmax,[2],283.7 ng/mL and 374.1 ng/mL
same,Tmax,[2],0.0 h
same,AUC(0-24h),[3],1715 ng·h/mL and 1336 ng·h/mL and 1764 ng·h/mL and 2162 ng·h/mL
same,C24h,[3],43.6 ng/mL and 54.9 ng/mL and 33.7 ng/mL and 55.2 ng/mL and 75 ng/mL
same,Cmax,[3],121.1 ng/mL and 93.8 ng/mL and 102.3 ng/mL and 160.3 ng/mL
same,AUC(0-24h),[4],3871 ng·h/mL and 4832 ng·h/mL
same,Adjusted Half-Life,[4],36.6 h
same,C24h,[4],111.8 ng/mL and 194.5 ng/mL
same,Cmax,[4],231.8 ng/mL and 220.7 ng/mL
same,Tmax,[4],3.0 h
same,"Adjusted Half-Life, Mean","DL2 40 mg/day oral, day 28, mean",40.4 h
same,AUC(0-24h),[5],1953 ng·h/mL and 2836 ng·h/mL
same,C24h,[5],72.2 ng/mL and 86.2 ng/mL
same,Cmax,[5],109.0 ng/mL and 166.0 ng/mL
same,Tmax,[5],24.0 h and 6.1 h
same,AUC(0-24h),[6],3432 ng·h/mL and 9961 ng·h/mL and 10846 ng·h/mL
same,Adjusted Half-Life,[6],26.0 h and 76.2 h and 54.9 h
same,C24h,[6],169.4 ng/mL and 521.2 ng/mL and 345.6 ng/mL
same,Cmax,[6],199.6 ng/mL and 521.2 ng/mL and 531.1 ng/mL
same,Tmax,[6],0.5 h and 24.0 h
same,"Adjusted Half-Life, Mean","DL3 60 mg/day oral, day 28, mean",52.4 h
same,AUC(0-24h),[7],4834 ng·h/mL and 5511 ng·h/mL
same,C24h,[7],157 ng/mL and 175 ng/mL
same,Cmax,[7],301 ng/mL and 324 ng/mL
same,Cmax,"DL4 100 mg/day oral, day 28, individual patients, listed as Z-endoxifen HCl",719 ng/mL
same,AUC(0-24h),[8],7200 ng·h/mL and 14650 ng·h/mL and 7425 ng·h/mL
same,C24h,[8],209 ng/mL and 509 ng/mL and 216 ng/mL
same,Cmax,[8],380 ng/mL and 957 ng/mL and 494 ng/mL
same,AUC(0-24h),[9],16591 ng·h/mL
same,Adjusted Half-Life,[9],28.1 h
same,C24h,[9],528 ng/mL
same,Cmax,[9],1485 ng/mL and 881 ng/mL
same,Tmax,[9],3.0 h
same,AUC(0-24h),[10],12520 ng·h/mL and 8804 ng·h/mL
same,C24h,[10],457 ng/mL and 271 ng/mL
same,Cmax,[10],299 ng/mL and 760 ng/mL and 492 ng/mL
same,AUC(0-24h),[11],16690 ng·h/mL and 52925 ng·h/mL and 22641 ng·h/mL
same,Adjusted Half-Life,[11],61.6 h and 33.8 h
same,C24h,[11],787 ng/mL and 1814 ng/mL and 606 ng/mL
same,Cmax,[11],984 ng/mL and 2574 ng/mL and 1364 ng/mL
same,mean C24 h relative to the 5.9 ng/mL threshold associated with clinical benefit on tamoxifen,"DL6, Day 28",more than 180 fold
same,AUC(0-24h),[12],15935 ng·h/mL and 10460 ng·h/mL and 11355 ng·h/mL and 13153 ng·h/mL and 13081 ng·h/mL and 24217 ng·h/mL and 16532 ng·h/mL
same,C24h,[12],485 ng/mL and 345 ng/mL and 384 ng/mL and 467 ng/mL and 337 ng/mL and 687 ng/mL and 574 ng/mL
same,Cmax,[12],825 ng/mL and 715 ng/mL and 887 ng/mL and 796 ng/mL and 1395 ng/mL and 1007 ng/mL
same,Tmax,"DL8 360 mg oral, day 1, individual patients",3.0 h
same,AUC(0-24h),[13],32079 ng·h/mL and 21926 ng·h/mL and 23576 ng·h/mL and 20747 ng·h/mL and 22520 ng·h/mL and 9274 ng·h/mL and 13704 ng·h/mL
same,C24h,[13],1190 ng/mL and 722 ng/mL and 653 ng/mL and 801 ng/mL and 658 ng/mL and 213 ng/mL and 493 ng/mL
same,Cmax,[13],1841 ng/mL and 1352 ng/mL and 1374 ng/mL and 1432 ng/mL and 1437 ng/mL and 780 ng/mL and 948 ng/mL
same,Tmax,[13],3.0 h
same,"Cmax, Mean","HCl salt, 360 mg oral, day 2 (after free base on day 1), mean of patients 35 and 36",2360 ng/mL
same,AUC(0–24 h),"HCl salt, 360 mg oral, day 2 (after free base on day 1), patients 35 and 36 individually, listed as Z-endoxifen HCl",23709 ng·h/mL and 59421 ng·h/mL
same,plasma concentration achieved by all patients,all dose levels,> 5.97 ng/mL
same,AUC(0–24h) dependence on dose,"day 1, DL1-8",linear increase with dose
same,concentration at 24 h,"human, plasma, oral, 20 mg, DL1, calculated from C24h in ng/mL, read-out: Plasma concentration 24 hours after the first dose",67 nM
same,concentration at 28 day,"human, plasma, oral, 20 mg, DL1, read-out: day 28 trough concentration, range",48.8 to 207 ng/mL
same,concentration at 28 day,"human, plasma, oral, 20 mg/day, DL1 (20 mg/day), day 28, read-out: average plasma concentration",353 nM
same,concentration at 28 day,"human, plasma, oral, 360 mg, DL8, if accumulation similar to lower dose levels, read-out: estimated day 28 concentration",1220 ng/mL to 2970 ng/mL and 3.3 µM to 7.9 µM
same,concentration at 24 h,"human, plasma, oral, 360 mg, DL8, calculated from C24h in ng/mL, read-out: Plasma concentration 24 hours after the first dose",1810 nM
same,half-life,"human, plasma, oral, range over dose levels, read-out: elimination half-life (t½)",30.6 to 55.9 h
same,AUC(0-t),"human, plasma, po, 20 mg, DL1 20 mg oral, day 1, individual patients, read-out: AUC(0-24h)",1030 ng·h/mL
same,concentration at 24 h,"human, plasma, po, 20 mg, DL1 20 mg oral, day 1, individual patients, read-out: C24h",25.2 ng/mL
same,Cmax,"human, plasma, po, 20 mg, DL1 20 mg oral, day 1, individual patients, read-out: Cmax",76.9 ng/mL
same,Tmax,"human, plasma, po, 20 mg, DL1 20 mg oral, day 1, individual patients, read-out: Tmax",3 h
same,AUC(0-t),"human, plasma, po, 20 mg, DL1 20 mg oral, day 1, mean, read-out: AUC(0-24h), Mean",1080 ng·h/mL
same,concentration at 24 h,"human, plasma, po, 20 mg, DL1 20 mg oral, day 1, mean, read-out: C24h, Mean",30.2 ng/mL
same,Cmax,"human, plasma, po, 20 mg, DL1 20 mg oral, day 1, mean, read-out: Cmax, Mean",68.6 ng/mL
same,Tmax,"human, plasma, po, 20 mg, DL1 20 mg oral, day 1, mean, read-out: Tmax, Mean",3.7 h
same,AUC(0-t),"human, plasma, po, 20 mg/day, DL1 20 mg/day oral, day 28, individual patients, read-out: AUC(0-24h)",2960 ng·h/mL
same,half-life,"human, plasma, po, 20 mg/day, DL1 20 mg/day oral, day 28, individual patients, read-out: Adjusted Half-Life (converted)",38.9 h
same,Cmax,"human, plasma, po, 20 mg/day, DL1 20 mg/day oral, day 28, individual patients, read-out: Cmax",201 ng/mL
same,AUC(0-t),"human, plasma, po, 20 mg/day, DL1 20 mg/day oral, day 28, mean, read-out: AUC(0-24h), Mean",4250 ng·h/mL
same,half-life,"human, plasma, po, 20 mg/day, DL1 20 mg/day oral, day 28, mean, read-out: Adjusted Half-Life, Mean (converted)",55.9 h
same,concentration at 24 h,"human, plasma, po, 20 mg/day, DL1 20 mg/day oral, day 28, mean, read-out: C24h, Mean",132 ng/mL
